Data taken from patent US9187458B2, “Cyanoquinoline derivatives” (Tianjin Hemay Bio-Tech Co., LTD., priority 2010, dated 2015).

Assays:
Sk-Br-3 cells = assay: Sk-Br-3 Cell Growth Inhibition Test (SRB Assay); format: cell-based; conditions: Homo sapiens, 91 h incubation
Description: Sk-Br-3 Cell Growth Inhibition Test (SRB Assay)
1. Cell strains: Sk-Br-3 (human breast cancer cell strains);
2. SRB: available from Sigmaaldrich, goods number: S9012, lot number: 047K3751. SRB was reserved at the room temperature. 0.4% (w/v) of working solution was formulated with 1% of glacial acetic acid. The solution was reserved at 4° C.; anti-tumor compounds; DMSO
Culture medium: 90% DMEM+10% FBS;
1. A plate (10 cm) of cells in logarithmic growth phase normally cultured was collected. The culture solution was sucked out. The plate was washed with 5 mL of PBS 1-2 times;
2. PBS was sucked out. […] of 0.25% pancreatin was added to infiltrate the cells for 30 s;
3. The pancreatin was sucked out. The culture plate was placed in an incubator. Digestion was carried out for about 1.5-2 min at 37° C.;
4. 4 mL of complete culture solution was added to the culture plate to stop the digestion. The cells were carefully scoured with micropipette (1 ml) to give a uniform single cell suspension;
5. Cell suspension was counted. The suspension was diluted to 1×10^5/ml. The resulting suspension was developed uniformly on a plate by 10000 cells/100 μl per well. The culture plate was incubated overnight under 5% CO2 at 37° C. In day 2, 100 μl of culture solution comprising a compound was added in each well, and further incubated for 91 h under 5% CO2 at 37° C.
6. The culture solution was sucked out. 100 uL of TCA fixed cells which were diluted to 10% were added to each well. The plate was kept in a refrigerator for 1 h at 4° C.
7. TCA stationary liquid was sucked out. Each well was washed with 150 μL of ddH2O five times;
8. After the stationary liquid was cleansed, the plate was dried in the air at the room temperature;
9. 60 μL of SRB staining solution was added in each well. The well was stained for 15 min at the room temperature;
10. The SRB staining solution was sucked out. Each well was washed with 150 μL of 1% glacial acetic acid five times;
11. After the SRB staining solution was cleansed, the plate was dried in the air at the room temperature;
12. 100 μL of 10 mM Tris was added in each well. The plate was vibrated to dissolve out SRB;
13. OD values were determined at 570 nM.
To: OD values of the starting content of cells when the cells were developed on a plate;
PC: OD values of cells after normal growth in control wells without a compound;
Ti: OD values of cells after growth in test wells with a compound;
NC: Background OD values of blank well without a compound and cells
Therefore: Ratio of cells in test wells to normal wells (% of control cell growth)=(Ti−To)/(PC−To)×100%
Ratio GI50 was concentration of a compound at the point of 50%.
Therefore: Ratio of killed cells to inoculated cells (% of killed cells)=(Ti−To)/(To−NC)×100%
LC50 was concentration point of a compound when half of the starting inoculated concentration was reached.
Concentration of a compound at this point is defined as TGI (total growth inhibition).

A431 cells = assay: A431 Cell Growth Inhibition Test (MTT Assay); format: cell-based, human; conditions: for IC50 / inhibition at 1 µM: Homo sapiens; for IC50: A-431, 68 h incubation; for Growth Inhibition Ratio (%) / inhibition at 1 µM: compound 1 μM, 68 h incubation; for inhibition at 1 µM: A-431, 68 h, read-out: Growth Inhibition Ratio (%)
Summary of the method: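 Cells seeded at 2500/well in DMEM/F12 with 10% FBS, grown overnight, then exposed to compound for 68 h at 37 °C, 5% CO2. Viability by MTT (0.5 mg/ml, 4 h), DMSO-solubilised, OD 490 nm; IC50 is concentration giving 50% growth inhibition relative to controls.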

NCI-N87 cells = assay: NCI-N87 Cell Growth Inhibition Test (MTT Assay); format: cell-based; conditions: Homo sapiens, 72 h incubation
Description: NCI-N87 Cell Growth Inhibition Test (MTT Assay)
1. Cell strains: NCI-N87 (human gastric carcinoma cell strains);
1. A plate (10 cm) of cells in logarithmic growth phase normally cultured was collected;
2. The culture solution was sucked out. The plate was washed wtih 5 ml of PBS 1-2 times;
3. PBS was sucked out. 1.5 ml of 0.25% pancreatin was added to infiltrate the cells for 1 min;
4. The pancreatin was sucked out. The culture plate was placed in an incubator. Digestion was carried out for about 12 min at 37° C.;
5. 4.5 ml of complete culture solution was added to the culture plate to stop the digestion. The cells were carefully scoured with micropipette (1 ml) to give a uniform cell suspension. The suspension was implanted into a 96-well cell culture disc by 17000 cells/100 μl per well. The culture plate was incubated overnight under 5% CO2 at 37° C. In day 2, 100 μl of culture solution comprising a compound was added in each well, and further incubated for 72 h under 5% CO2 at 37° C.
6. The culture solution was sucked out;
7. 100 μl of serum-free culture solution containing 0.5 mg/ml MTT was added in each well, and incubated for 3 h;
8. The culture solution was carefully sucked out;
9. 100 μl of DMSO was added in each welland vibrated to dissolve;
10. OD values were determined at 490 nM.
1. Calculation of Rrelative Inhibition Ratio The inhibition ratio of a compound on cell growth=(PC−n)/(PC−NC)×100%
IC50: Concentration of a compound where inhibition ratio was 50%. IC50 values were fitted with Origin7.5.

Row | Structure (SMILES) | IC50 (A431 cells) | GI50 (Sk-Br-3 cells) | Growth Inhibition Ratio (%) (A431 cells) | IC50 (NCI-N87 cells) | inhibition at 1 µM (A431 cells)
1 | CN(C)C/C=C/C(=O)Nc1cc2c(Nc3ccc(F)c(Cl)c3)c(C#N)cnc2cc1OC1CCOC1 (stereo not drawn) [Example 4, (E)-N-(4-(3-CHLORO-4-FLUOROPHENYLAMINO)-3-CYANO-7-(TETRAHYDROFURAN-3-YL-OXY)QUINOLIN-6-YL)-4-(DIMETHYLAMINO)-BUT-2-ENAMIDE] | 68 nM | 148 nM | 80% | 79 nM | –
2 | C#Cc1cccc(Nc2c(C#N)cnc3cc(OC4CCOC4)c(NC(=O)/C=C/CN(C)C)cc23)c1 (stereo not drawn) [Example 5, (E)-N-(3-CYANO-4-(3-ETHYNYLPHENYLAMINO)-7-(TETRAHYDROFURAN-3-YL-OXY)QUINOLIN-6-YL)-4-(DIMETHYLAMINO)-BUT-2-ENAMIDE] | 24 nM | 24 nM | 85% | 22 nM | –
3 | CN(C)C/C=C/C(=O)Nc1cc2c(Nc3cccc(Br)c3)c(C#N)cnc2cc1OC1CCOC1 (stereo not drawn) [Example 7, (E)-N-(4-(3-BROMOPHENYLAMINO)-3-CYANO-7-(TETRAHYDROFURAN-3-YL-OXY)QUINOLIN-6-YL)-4-(DIMETHYLAMINO)-BUT-2-ENAMIDE] | 160 nM | 213 nM | – | 113 nM | –
4 | CN(C)C/C=C/C(=O)Nc1cc2c(Nc3ccc(OCc4cccc(F)c4)c(Cl)c3)c(C#N)cnc2cc1OC1CCOC1 (stereo not drawn) [Example 9, (E)-N-(4-(4-(3-FLUOROBENZYLOXY)-3-CHLOROPHENYLAMINO)-3-CYANO-7-(TETRAHYDROFURAN-3-YL-OXY)QUINOLIN-6-YL)-4-(DIMETHYLAMINO)-BUT-2-ENAMIDE] | 135 nM | 15 nM | 90% | 8.6 nM | –
5 | CN(C)C/C=C/C(=O)Nc1cc2c(Nc3ccc(OCc4cccc(Cl)c4)c(Cl)c3)c(C#N)cnc2cc1OC1CCOC1 (stereo not drawn) [Example 11, (E)-N-(4-(4-(3-CHLOROBENZYLOXY)-3-CHLOROPHENYLAMINO)-3-CYANO-7-(TETRAHYDROFURAN-3-YL-OXY)QUINOLIN-6-YL)-4-(DIMETHYLAMINO)-BUT-2-ENAMIDE] | 184 nM | – | – | 11 nM | –
6 | CN(C)C/C=C/C(=O)Nc1cc2c(Nc3ccc(OCc4ccccc4C#N)c(Cl)c3)c(C#N)cnc2cc1OC1CCOC1 (stereo not drawn) [Example 13, (E)-N-(4-(4-(2-CYANOBENZYLOXY)-3-CHLOROPHENYLAMINO)-3-CYANO-7-(TETRAHYDROFURAN-3-YL-OXY)QUINOLIN-6-YL)-4-(DIMETHYLAMINO)-BUT-2-ENAMIDE] | 158 nM | – | – | 4.4 nM | 89%
7 | CN(C)C/C=C/C(=O)Nc1cc2c(Nc3ccc(OCc4cccc(C#N)c4)c(Cl)c3)c(C#N)cnc2cc1OC1CCOC1 (stereo not drawn) [Example 15, (E)-N-(4-(4-(3-CYANOBENZYLOXY)-3-CHLOROPHENYLAMINO)-3-CYANO-7-(TETRAHYDROFURAN-3-YL-OXY)QUINOLIN-6-YL)-4-(DIMETHYLAMINO)-BUT-2-ENAMIDE] | 370 nM | – | – | 7.1 nM | 91%
8 | CN(C)C/C=C/C(=O)Nc1cc2c(Nc3ccc(OCc4ccc(Cl)cc4)c(Cl)c3)c(C#N)cnc2cc1OC1CCOC1 (stereo not drawn) [Example 16, (E)-N-(4-(4-(4-CHLOROBENZYLOXY)-3-CHLOROPHENYLAMINO)-3-CYANO-7-(TETRAHYDROFURAN-3-YL-OXY)QUINOLIN-6-YL)-4-(DIMETHYLAMINO)-BUT-2-ENAMIDE] | 358 nM | 36 nM | – | 26 nM | –
9 | Cc1ccc(COc2ccc(Nc3c(C#N)cnc4cc(OC5CCOC5)c(NC(=O)/C=C/CN(C)C)cc34)cc2Cl)cc1 (stereo not drawn) [Example 19, (E)-N-(4-(4-(4-METHYLBENZYLOXY)-3-CHLOROPHENYLAMINO)-3-CYANO-7-(TETRAHYDROFURAN-3-YL-OXY)QUINOLIN-6-YL)-4-(DIMETHYLAMINO)-BUT-2-ENAMIDE] | 390 nM | 63 nM | – | 32 nM | –

Now from value to compound, other results behind:

Row | IC50 (A431 cells) | Structure (SMILES) | GI50 (Sk-Br-3 cells) | Growth Inhibition Ratio (%) (A431 cells) | IC50 (NCI-N87 cells) | inhibition at 1 µM (A431 cells)
10 | 145 nM | CN(C)C/C=C/C(=O)Nc1cc2c(Nc3ccc(OCc4ccccc4F)c(Cl)c3)c(C#N)cnc2cc1OC1CCOC1 (stereo not drawn) [Example 8, (E)-N-(4-(4-(2-FLUOROBENZYLOXY)-3-CHLOROPHENYLAMINO)-3-CYANO-7-(TETRAHYDROFURAN-3-YL-OXY)QUINOLIN-6-YL)-4-(DIMETHYLAMINO)-BUT-2-ENAMIDE] | – | – | 5.6 nM | 91%
11 | 222 nM | CN(C)C/C=C/C(=O)Nc1cc2c(Nc3ccc(OCc4ccccc4Cl)c(Cl)c3)c(C#N)cnc2cc1OC1CCOC1 (stereo not drawn) [Example 10, (E)-N-(4-(4-(2-CHLOROBENZYLOXY)-3-CHLOROPHENYLAMINO)-3-CYANO-7-(TETRAHYDROFURAN-3-YL-OXY)QUINOLIN-6-YL)-4-(DIMETHYLAMINO)-BUT-2-ENAMIDE] | 6 nM | – | 11 nM | –
12 | 147 nM | CN(C)C/C=C/C(=O)Nc1cc2c(Nc3ccc(OCc4ccccc4)c(Cl)c3)c(C#N)cnc2cc1OC1CCOC1 (stereo not drawn) [Example 12, (E)-N-(4-(4-(BENZYLOXY)-3-CHLOROPHENYLAMINO)-3-CYANO-7-(TETRAHYDROFURAN-3-YL-OXY)QUINOLIN-6-YL)-4-(DIMETHYLAMINO)-BUT-2-ENAMIDE] | – | – | 6.1 nM | –
13 | 194 nM | Cc1ccccc1COc1ccc(Nc2c(C#N)cnc3cc(OC4CCOC4)c(NC(=O)/C=C/CN(C)C)cc23)cc1Cl (stereo not drawn) [Example 17, (E)-N-(4-(4-(2-METHYLBENZYLOXY)-3-CHLOROPHENYLAMINO)-3-CYANO-7-(TETRAHYDROFURAN-3-YL-OXY)QUINOLIN-6-YL)-4-(DIMETHYLAMINO)-BUT-2-ENAMIDE] | 7 nM | – | 21 nM | –
14 | 81 nM | CN(C)C/C=C/C(=O)Nc1cc2c(Nc3ccc(OCc4ccccn4)c(Cl)c3)c(C#N)cnc2cc1OC1CCOC1 (stereo not drawn) [Example 21, (E)-N-(4-(3-CHLORO-4-(PYRIDIN-2-YL-METHOXY)PHENYLAMINO)-3-CYANO-7-(TETRAHYDROFURAN-3-YL-OXY)QUINOLIN-6-YL)-4-(DIMETHYLAMINO)-BUT-2-ENAMIDE] | 4.1 nM | – | 6.8 nM | –
15 | 62 nM | CN(C)C/C=C/C(=O)Nc1cc2c(Nc3ccc(OCc4ccccn4)c(Cl)c3)c(C#N)cnc2cc1O[C@H]1CCOC1 [Example 138, (S,E)-N-(4-(3-CHLORO-4-(PYRIDIN-2-YL-METHOXY)PHENYLAMINO)-3-CYANO-7-(TETRAHYDROFURAN-3-YL-OXY)QUINOLIN-6-YL)-4-(DIMETHYLAMINO)-BUT-2-ENAMIDE] | 3.8 nM | – | 4.4 nM | 89%
16 | 93 nM | CN(C)C/C=C/C(=O)Nc1cc2c(Nc3ccc(OCc4ccccn4)c(Cl)c3)c(C#N)cnc2cc1O[C@@H]1CCOC1 [Example 139, (R,E)-N-(4-(3-CHLORO-4-(PYRIDIN-2-YL-METHOXY)PHENYLAMINO)-3-CYANO-7-(TETRAHYDROFURAN-3-YL-OXY)QUINOLIN-6-YL)-4-(DIMETHYLAMINO)-BUT-2-ENAMIDE] | 5.2 nM | – | 7.2 nM | 90%
